Measurements as given in patent US9662371B2, “Treatment of autism and similar disorders” (Neuropharmacology Services, LLC, priority 2002, dated 2017).

Columns and labels:
[1] = test system: adult patients diagnosed with autism or Asperger's disorder; experiment: Side effects and vital signs (blood pressure, pulse, oral temperature) during the oxytocin infusion challenge; format: in vivo, human
Method: (§1) All subjects were admitted into the General Clinical Research Center on the evening prior to each challenge. Following an overnight fast, the subject was awakened at 8:00 AM and an indwelling intravenous catheter inserted. At 8:30 AM vital signs were taken, and these continued to be monitored every half-hour. At 9:00 AM, 6 cc of blood were drawn and the oxytocin/placebo infusion was administered in a randomized double-blind fashion. The initial vial of Pitocin® (10 u/mL) combined aseptically with a 1.0 L bag of normal saline was first given at a rate of 10 mL/hr which is equivalent to a dose rate of 0.1 units/hour. The infusion was initiated at a low rate to minimize potential side effects, and the rate gradually titrated up. Specifically, the dose rate was titrated every 15 minutes by 25 mL/hour in the first hour, 50 mL/hour in the second hour, 100 mL/hour in the third hour, and held constant at the maximum rate of 700 mL/hr during the fourth hour. This created a range of dosing from 0.1 U/hour to 7 U/hour. See below:
(§2) Staff members were given specific instructions to discontinue increasing the rate of infusion if the patient experienced significant side effects. In order to assess possible cardiovascular effects, blood pressure and pulse were recorded every half hour. Oral temperature was recorded every hour. All fifteen subjects returned in 2-3 weeks for an identical challenge administered with the other infusion substance.
A repeated measure analysis of variance (ANOVA) was conducted looking at the two infusions (oxytocin vs. placebo) over time (0, 60, 120, 180 and 240 minutes). A logarithmic transformation was done for the repetitive behavior ratings because the data were not normally distributed. Baseline differences on the oxytocin vs. placebo days were examined using paired sample t-tests. Differences in response between patients with autism and patients with Asperger's disorder were examined using independent sample t-tests. […]

[2] = test system: adult patients diagnosed with autism or Asperger's disorder; experiment: Oxytocin vs placebo 4-hour intravenous infusion challenge, rating of six repetitive behaviors; format: in vivo, human
Description: To evaluate the role of oxytocin in treating autism spectrum disorders, fifteen adult patients (mean age=32.9 years, range=19.4-55.6) (14 male, 1 female) diagnosed with autism (N=6) or Asperger's disorder (N=9) received oxytocin and placebo challenges during visits separated by 2-3 weeks to the General Clinical Research Center of the Department of Psychiatry, Seaver Autism Research Center at the Mount Sinai School of Medicine (New York, N.Y.).
Patients and their guardians signed written informed consent agreements, and the study was carried out in accordance with the Declaration of Helsinki as adopted and promulgated by the National Institutes of Health. All patents were medically healthy, without a current or past history of schizophrenia, psychotic disorders, substance abuse, other Axis I mental disorders, or seizure disorders. Patients were of average intelligence, with a mean IQ (±SD) of 90.33 (±9.90) (range=74-110). Nine patients were medication free for greater than one year prior to the study; three patents were medication free for greater than six weeks prior to the study (one was previously on fluoxetine, one on sertraline and one on bupropion); and the remaining three patents were medication free for a minimum of two weeks prior to and throughout the study (one was previously on fluvoxamine and risperidone, one on sertraline and one on clonazepam).
Each individual subject underwent two identical challenge days in which they received a continuous infusion over 4 hours of synthetic oxytocin (Pitocin®) or placebo.
as §1
The combined solution, rotated in an infusion bottle to insure thorough mixing, was added to the system by a constant infusion pump to accurately control the rate of infusion.
as §2
Severity of repetitive autistic behaviors was evaluated using a method developed during past research with the autistic population. Six behaviors were assessed: need to know, repeating, ordering, need to tell/ask, self-injury, and touching. The ratings were completed at baseline (O), 60, 120, 180, and 240 minutes and reported. The frequency of each of the six repetitive behaviors was recorded using a four point ordinal scale with the following values: 0=never, 1=rarely, 2=sometimes, 3=constantly. These ratings were done following a 15 to 20 minute interview during which several other measures were administered and the rater had the opportunity to observe the patient's behavior in this domain. […]

[3] = baseline (0) to endpoint (240 minutes), 15 patients, FIG. 2

## CC[C@H](C)[C@@H]1NC(=O)[C@H](Cc2ccc(O)cc2)NC(=O)[C@@H](N)CSSC[C@@H](C(=O)N2CCC[C@H]2C(=O)N[C@@H](CC(C)C)C(=O)NCC(N)=O)NC(=O)[C@H](CC(N)=O)NC(=O)[C@H](CCC(N)=O)NC1=O [oxytocin]
[1]; 4-hour infusion, 0.1 U/hour to 7 U/hour
  effects of infusion on blood pressure, pulse, or temperature: no significant effects
[1]; 4-hour infusion, drowsiness, anxiety, depression, headache, tingling, backache, trembling, restlessness, stomach cramps, enuresis
  side effects: mild
[1]; chi square analysis
  relationship between presence or number of side effects and behavioral response: no relationship
[2]; ANOVA of individual items, at p<0.05
  individual dimensions of repetitive behavior, oxytocin versus placebo infusions over time: no significant differences
[2]; ANOVA, F=1.835, df=1, 13, p=0.199
  main effect for drug on repetitive behaviors: no significant main effect
[2]; autistic study group, FIG. 1 (dashed line)
  total number of repetitive behaviors observed following administration: appears to decrease
[2]; [3]
  patients with an increase in repetitive behaviors: 1 patient
  patients with no change in repetitive behaviors: 1 patient
[2]; independent sample t-test, t=0.687, df=13, p=0.504
  response of patients with autism versus patients with Asperger's disorder following oxytocin infusion: did not differ
[2]; individuals who responded to oxytocin, endpoint (240 minutes)
  number of different types of repetitive behavior at endpoint: none or one
[2]; repeated measures ANOVA, 0-240 min, drug×time interaction F=3.487, df=4, 52, p=0.027, FIG. 1
  reduction in repetitive behaviors over time following oxytocin compared to placebo: significantly greater reduction
[2]; time×drug interaction F=2.444, df=4, 52, p=0.093 (p<0.10)
  touching behavior, oxytocin versus placebo over time: directional difference
[2]; time×drug interaction F=2.70, df=4, 52, p=0.086 (p<0.10)
  repeating behavior, oxytocin versus placebo over time: directional difference
